Results as given in patent US20180169021A1, “RANOLAZINE MULTIPLE COMPRESSED TABLETS” (INTERQUIM, S.A., priority 2015, published 2018).
Converted amounts (≈) assume the structure as drawn. Where two headings read alike, the source gives them in different places.

Key:
[1] = Dissolution in time of 500 mg ranolazine compressed into tablets, 900 mL aqueous media, paddle 100 rpm (FIG. 1); format: physicochemical; settings: 100% ranolazine tablet
From the text: As shown in the previous table, ranolazine is much more soluble at acidic pH than in neutral or basic pH.

[2] = quoted from WO0166093 A2; cited from earlier work
[3] = cited from earlier work

For COc1ccccc1OCC(O)CN1CCN(CC(=O)Nc2c(C)cccc2C)CC1 (centres unmarked) [Ranolazine, N-(2,6-dimethylphenyl)-2-(4-(2-hydroxy-3-(2-methoxyphenoxy)propyl)piperazin-1-yl)acetamide], the “Time until all the ranolazine is dissolved” value ([1]; pH 1 (0.1 M HCl)) was “less than 30 minutes”, the Ranolazine dissolved ([1]; pH 6.8, 30 minutes) was “around 63%” and the Extent of dissolution ([1]; pH 6.8, 12 hours) was “not yet fully dissolved”. For the same compound, the Plasma half-life [2] was “relatively short”, the Solubility ([3]; Solution pH 4.81) was 161 mg/mL (≈ 377 mM) and the “USP Solubility Class” value ([3]; Solution pH 4.81) was “Freely Soluble”. For the same compound, the Solubility ([3]; Solution pH 4.89) was 73.8 mg/mL (≈ 173 mM), the “USP Solubility Class” value ([3]; Solution pH 4.89) was “Soluble” and the Solubility ([3]; Solution pH 4.90) was 76.4 mg/mL (≈ 179 mM). For the same compound, the “USP Solubility Class” value ([3]; Solution pH 4.90) was “Soluble”, the Solubility ([3]; Solution pH 5.04) was 49.4 mg/mL (≈ 116 mM) and the “USP Solubility Class” value ([3]; Solution pH 5.04) was “Soluble”. The Solubility ([3]; Solution pH 5.35) was 16.7 mg/mL (≈ 39.1 mM), the “USP Solubility Class” value ([3]; Solution pH 5.35) was “Sparingly Soluble” and the Solubility ([3]; Solution pH 5.82) was 5.48 mg/mL (≈ 12.8 mM). For the same compound, the “USP Solubility Class” value ([3]; Solution pH 5.82) was “Slightly soluble”, the Solubility ([3]; Solution pH 6.46) was 1.63 mg/mL (≈ 3.81 mM) and the “USP Solubility Class” value ([3]; Solution pH 6.46) was “Slightly soluble”. For the same compound, the Solubility ([3]; Solution pH 6.73) was 0.83 mg/mL (≈ 1.94 mM), the “USP Solubility Class” value ([3]; Solution pH 6.73) was “Very slightly soluble” and the Solubility ([3]; Solution pH 7.08) was 0.39 mg/mL (≈ 0.912 mM). For the same compound, the “USP Solubility Class” value ([3]; Solution pH 7.08) was “Very slightly soluble”, the Solubility ([3]; Solution pH 7.59*) was 0.24 mg/mL (≈ 0.561 mM) and the “USP Solubility Class” value ([3]; Solution pH 7.59*) was “Very slightly soluble”. The Solubility ([3]; Solution pH 7.79) was 0.17 mg/mL (≈ 0.398 mM), the “USP Solubility Class” value ([3]; Solution pH 7.79) was “Very slightly soluble” and the Solubility ([3]; Solution pH 12.66) was 0.18 mg/mL (≈ 0.421 mM). For the same compound, the “USP Solubility Class” value ([3]; Solution pH 12.66) was “Very slightly soluble” and the Solubility ([3]; low pH that occurs in the stomach, quoted from WO0166093 A2) was “relatively high”.
